Positions of bridges follow the written chain, without caps; N, C: chain ends. Non-standard residues stand in square brackets, D forms with d. Residues, ends and D or L forms follow the SMILES beside them. No end group written: not given here. pGlu = O=C1CC[C@@H](C(=O)O)N1
Legend:
mouse sperm = assay: Subjective motility evaluation; format: cell-based; details: judged subjectively; concentrations as in the CTC experiments
Excerpt: In all experiments, a drop of each suspension was examined briefly for subjective motility evaluation.

capacitated mouse sperm = assay: Spontaneous acrosome loss in capacitated suspensions (CTC); format: cell-based; details: for incidence of spontaneously acrosome-reacted sperm vs untreated control: 40 min after 90 min capacitation
Procedure: (§1) Chlortetracycline (CTC) fluorescence analysis was carried out as described by Green et al. (1994). Assessments were made on an Olympus BX40 microscope equipped with phase contrast and BX-FLA epifluorescence optics using the wide blue-violet excitation cube (U-MWBV). The excitation beam passed through a 400-440 nm band pass filter and CTC fluorescence was observed through a DM 455 dichroic mirror. In each sample, at least 100 sperm were classified as expressing one of three patterns: F, with fluorescence over the entire head, a pattern characteristic of uncapacitated (non-fertilizing), acrosome-intact sperm; B, with a fluorescence-free band in the postacrosomal region, a pattern characteristic of capacitated (potentially fertilizing), acrosome-intact sperm; AR, with dull or absent fluorescence over the whole head, a pattern characteristic of acrosome-reacted (non-fertilizing) sperm.
Sperm suspensions were prepared as described earlier for CTC analysis and incubated for 90 min to allow capacitation. Suspensions were then filtered to remove non-motile cells and a sample was stained with CTC (Con-90). The remaining suspension was aliquotted out to different treatment groups and treated for 40 min with nothing (Con-130), 100 nM FPP (positive control), 100 nM FPP+100 ng/ml pertussis toxin (F+PT, negative control), 5 ng/ml salmon calcitonin (CT) and 5 ng/ml salmon calcitonin+100 ng/ml pertussis toxin (CT+PT); (n=3).

human sperm [1] = details: some (higher) concentrations; Gnessi et al, 1984; cited from earlier work
[2] = tested on: uncapacitated mouse sperm suspensions; assay: In vitro fertilization analysis; format: cell-based; details: 40 min preincubation, 65 min coincubation
Procedure: The contents of the cauda epididymides from 2 mature TO male mice were released into 2 ml modified Tyrode's medium in 30 mm sterile culture dishes and allowed to disperse for 5 min. Suspensions were then divided into 3 treatment groups, each in a 30 mm sterile dishes, and treated with nothing (Control) or with calcitonin. As in the CTC experiments, salmon calcitonin was used at a final concentration of 5 ng/ml and human calcitonin at 200 ng/ml. Each suspension was overlaid with autoclaved liquid paraffin and incubated for 40 min at 37° C. in an atmosphere of 5% O2, 5% CO2, 90% N2.
Mature female TO mice were induced to superovulate by intraperitoneal injections of 7.5 IU equine chorionic gonadotrophin and approximately 50 hr later with 5 IU human chorionic gonadotrophin (hCG). Approximately 15 hr post-hCG, oviducts were removed and cumulus masses containing the oocytes were released into medium covered with liquid paraffin. Preincubated sperm suspensions were diluted ^˜10 fold into medium of the same composition used for initial incubation (i.e., without or with calcitonin); 400 μl of diluted suspension were transferred to culture dishes, covered with liquid paraffin and oocytes were added. […]
Oocytes were stained with 0.75% aceto orcein, mounted and assessed (Fraser, 1993). […]

[3] = tested on: uncapacitated mouse sperm; assay: Chlortetracycline (CTC) fluorescence analysis of capacitation in uncapacitated sperm; format: cell-based; details: 40 min incubation
Procedure: The contents of cauda epididymides (3-4 cauda per ml of medium) from mature TO male mice (Harlan Olac, Bicester, U.K.) were released into 2 ml modified Tyrode's medium (Fraser, 1993) in 30 mm sterile culture dishes and allowed to disperse for 5 min. For studies on uncapacitated sperm, suspensions were then filtered through short columns of Sephadex G-25 (medium grade; Pharmacia, Uppsala, Sweden) to remove non-motile cells. Filtered suspensions were aliquotted out to different treatment groups, treated with nothing (control), calcitonin or FPP (as a positive control) and then incubated for 40 min. Salmon calcitonin was used at a final concentration of 5 ng/ml, human calcitonin was used at 200 ng/ml and 20 ng/ml and FPP was used at 100 nM. These short-term incubations were carried out in 0.5 ml plastic microcentrifuge tubes at 37° C. in an atmosphere of 5% CO2, 5% O2, 90% N2. […] Three replicate experiments using uncapacitated sperm were carried out using salmon calcitonin and the higher concentration of human calcitonin (n=3); for the lower concentration of the human hormone, n=2.
as §1

human sperm [4] = details: Green et al., 1996; cited from earlier work
[5] = pertussis toxin at 100 ng/ml, 40 min

For calcitonin, the “sperm motility vs untreated controls” value (mouse sperm) was “more active motility”.

In the case of salmon calcitonin, the “incidence of spontaneously acrosome-reacted sperm vs untreated control” value (capacitated mouse sperm; 5 ng/ml, P<0.01, n=3) is listed as “significantly lower incidence”, the “effect on human sperm motility” value (human sperm [1]) is listed as “negative effect” and the “fertilized oocytes obtained vs untreated control sperm” value ([2]; 5 ng/ml, P<0.025, n=4) is listed as “significantly more fertilized oocytes”. The “proportion of F pattern cells (uncapacitated, non-fertilizing) vs untreated” value ([3]; 5 ng/ml) was “significantly lower proportion” and the “proportion of B pattern cells (capacitated, potentially fertilizing) vs untreated” value (“proportion of B pattern cells … vs untreated” below) ([3]; 5 ng/ml, P<0.01, n=3) was “significantly higher proportion”.

For “human calcitonin: 32-amino acid hypocalcemic hormone of human origin (CGNLSTCMLGTYTQDFNKFHTFPQTAIGVGAP-NH2; disulfide 1-7; ends not checked; UniProt P01258 85-116, looked up)”, the “effect on human sperm motility” value (human sperm [1]) is given as “not”, the “fertilized oocytes obtained vs untreated control sperm” value ([2]; 200 ng/ml, P<0.05, n=4) is given as “significantly more fertilized oocytes” and the “proportion of F pattern cells (uncapacitated, non-fertilizing) vs untreated” value ([3]; 20 ng/ml) is given as “significantly lower proportion”. For the same compound, the “proportion of B pattern cells … vs untreated” value ([3]; 20 ng/ml, P<0.025, n=2) was “significantly higher proportion”, the “proportion of F pattern cells (uncapacitated, non-fertilizing) vs untreated” value ([3]; 200 ng/ml) was “significantly lower proportion” and the “proportion of B pattern cells … vs untreated” value ([3]; 200 ng/ml, P<0.01, n=3) was “significantly higher proportion”.

In the case of `NC(=O)[C@@H]1CCCN1C(=O)[C@H](CCC(=O)O)NC(=O)[C@@H]1CCC(=O)N1` [FPP, pyroglutamylglutamylprolineamide] ([pGlu]-Glu-Pro-NH2), the “incidence of spontaneously acrosome-reacted sperm vs untreated control” value (capacitated mouse sperm; 100 nM, P<0.01, n=3, positive control) was “significantly lower incidence”, the “sperm motility vs untreated controls” value (mouse sperm) was “more active motility” and the “proportion of F pattern cells (uncapacitated, non-fertilizing) vs untreated” value ([3]; 100 nM) was “significantly lower proportion”. The “proportion of B pattern cells … vs untreated” value ([3]; 100 nM, P<0.01, positive control) was “significantly higher proportion” and the “human sperm fertilizing ability” value (human sperm [4]) was “stimulate human sperm fertilizing ability”.

In the case of pertussis toxin, the “effect on the response (inhibition of spontaneous acrosome loss) to 5 ng/ml salmon calcitonin” value (capacitated mouse sperm; [5]) was “abolished the responses” and the “effect on the response (inhibition of spontaneous acrosome loss) to 100 nM FPP” value (capacitated mouse sperm; [5]) was “abolished the responses”.

Reference: US6716812B1, “Modulation of sperm function” (priority 1998, dated 2004)
